In US7683185B2, “Histone deacetylase inhibitors” (Queen Mary & Westfield College, priority 2002, dated 2010):
Read-outs that look alike come from different tables or passages of the source.

Assays:
[1] = system: T1, whole cell HDAC activity (CEM cells); test: Whole cell HDAC activity assay in intact CEM cells (MAL substrate); assay type: cell-based
T1 construct: other: intact CEM cells
Protocol: The fluorescent substrate MAL has been used in a novel assay established and validated by Dr. Joel for the determination of HDAC activity in intact cells.
1×10^6 CEM cells in 1 ml medium were exposed to inhibitors at 6 concentrations for 60 minutes, after which MAL at 20 μg/ml (5 μg/mL final concentration) was added for a further 30 minutes, all at 37° C. Cells were then rapidly washed at 4° C., lysed by sonication, the reaction stopped with acetonitrile, and MAL and the deacetylated product determined in the supernatant by rapid HPLC.
Chromatographic separation of MAL and ML was carried out using a 15 cm Apex ODS 5 μM column with acetonitrile/distilled water (40:60), 2% trifluoracetic acid (TFA) v/v mobile phase at a flow rate of 1.2 ml/minute.
The activity of each inhibitor was assessed at a minimum of 5 non-zero concentrations. MAL and ML peak heights were used to derive the percentage MAL in the mixture as the ration of MAL: MAL+ML.

rat liver HDAC = test: HDAC activity assay with partially purified rat liver HDAC enzyme (MAL substrate); assay type: biochemical
Protocol: The activity of the compounds as inhibitors of histone deacetylase was investigated using a modified assay based on a rapid in vitro HDAC activity assay (based on the deacetylation of an Ω-acetylated lysine (MAL)) and described by Hoffman et al. in Nucl. Acids. […] The reaction was terminated with 100 μl acetonitrile, and MAL and the deacetylated produce (ML) were determined in the supernatant. […] MAL and ML peak heights were used to derive the percentage MAL in the mixture as the ration of MAL: MAL+ML.

CEM cells = test: Percentage viability in CEM cells (3-day exposure); assay type: cell-based
[2] = system: whole cell HDAC activity (CEM cells); test: Whole cell HDAC assay modified for 24-hour incubation with CEM cells as indicator of in vitro compound stability
[3] = intact CEM cells, inhibitor 60 minutes then MAL 30 minutes, read-out: HDAC inhibitory activity (IC50) μM CEM cells
[4] = rat liver HDAC preparation, 60 minutes at 37° C., read-out: HDAC inhibitory activity (IC50) μM Liver preparation
[5] = Homo sapiens, CCRF-CEM, 72 h, Table 2, CEM cells, 3-day exposure, read-out: % Viability (IC50)
[6] = CEM cells (Table 2), read-out: HDAC inhibitory activity CEM cells (IC50)
[7] = intact CEM cells, read-out: HDAC activity IC50, CEM cells
[8] = rat liver HDAC, read-out: HDAC activity IC50, rat liver HDAC

O=C(/C=C/C=C/CS(=O)(=O)c1ccccc1)NO [CM4, 6-benzenesulfonyl-hexa-2,4-dienoic acid hydroxamide]
IC50 [1, 3]: 3.3 ± 1.3 µM
IC50 (rat liver HDAC; [4]): 0.8 ± 0.3 µM

O=C(/C=C/C=C/C[S+]([O-])c1ccc(Cl)cc1)NO (stereo not drawn) [UCL 2002, 6-(4-Chlorobenzenesulfinyl)-hexa-2,4-dienoic acid hydroxyamide]
IC50 (CEM cells; [5]): 1.57 µM
decrease in HDAC inhibitory activity between 1 and 24 hours incubation [2]: no decrease in activity
IC50 [1, 6]: 1.58 µM
IC50 [1, 3]: 1.2 ± 0.4 µM
IC50 (rat liver HDAC; purified liver HDAC (Table 2), read-out: HDAC inhibitory activity Purified liver (IC50)): 0.31 µM
IC50 (rat liver HDAC; [4]): 0.4 ± 0.1 µM

O=C(CCCCC[S+]([O-])c1ccc(Cl)cc1)NO (stereo not drawn) [UCL 2007, 6-(4-Chloro-benzenesulfinyl)-hexanoic acid hydroxyamide]
IC50 (CEM cells; [5]): 2.56 µM
decrease in HDAC inhibitory activity between 1 and 24 hours incubation [2]: no decrease in activity
IC50 [1, 6]: 1.28 µM

CC=CC=CC(=O)NO [hexa-2,4-dienic acid hydroxamide, reference compound]
IC50 [1, 7]: 47 ± 17 µM
IC50 (rat liver HDAC; [8]): 0.8 ± 0.7 µM

CC(/C=C/C(=O)NO)=C\[C@@H](C)C(=O)c1ccc(N(C)C)cc1 [trichostatin, Trichostatin A, reference compound]
IC50 (CEM cells; Homo sapiens, CCRF-CEM, 72 h, read-out: % viability (IC50) μM): 0.082 ± 0.011 µM
decrease in HDAC inhibitory activity between 1 and 24 hours incubation [2]: greater than 90%

sodium phenyl-butyrohydroxamic acid [NaPBHA, reference compound]
IC50 (CEM cells; CEM cells, 3-day exposure, read-out: IC50 values for percentage viability): 138 ± 28 µM
IC50 [1, 7]: 158 ± 99 µM
IC50 (rat liver HDAC; [8]): 6.2 ± 2 µM
